This is an account of results in US8568755B2 (priority 2007, dated 2013).

Experiment [1] deals with Sphaerotheca fuliginea. The format is in vivo.
Experiment [2] has as its system Septoria nodorum. The experiment can be described thus: Test on preventive effect against wheat glum bloth (Test Example 3). The format is in vivo. The procedure:
Wheat (cultivar: Norin-61-go) was cultivated in a plastic pot having a diameter of 7.5 cm, and when it reached 1.5-leaf stage, a mixed chemical solution having the respective sample compounds adjusted to prescribed concentrations, was applied by a spray gun in an amount of 10 ml per seedling. After the chemical solution dried, a suspension of conidia of Septoria nodorum was sprayed and inoculated and maintained at 20° C. for 7 days (for the first 3 days maintained under high humidity condition). Thereafter, the area of lesions was investigated, and the diseased area ratio to non-treated section was obtained by the following equation. Diseased area ratio to non-treated section=(a/b)×100
a: Average area of lesions in treated section
b: Average area of lesions in non-treated section
Further, the theoretical value was calculated by a Colby's formula and shown in brackets ( ) in Tables 3-1 to 3-14. Since the diseased area ratio to non-treated section (experimental value) is lower than the theoretical value, the composition of the present invention can be said to have a synergistic effect.

Experiment [3] deals with Botrytis cinerea. As to the kind of experiment: Test on preventive effect against kidney bean gray mold (Test Example 4). The format is in vivo. The procedure: Kidney bean (cultivar: Taisyou Kintoki) was cultivated in a plastic pot having a diameter of 12.0 cm, and when it reached 2.5-leaf stage, a mixed chemical solution having the respective test compounds adjusted to prescribed concentrations, was applied by a spray gun in an amount of 10 ml per seedling. After the chemical solution dried, the leaf was cut out, and a filter paper disk (8 mm in diameter) was placed on the leaf. Then, 120 μl of a suspension of spores of Botrytis cinerea (1.0×10^6 spores/ml) was dropped thereon and inoculated. The system was maintained under a humidity condition at 20° C. for three days, whereupon the area of lesions was investigated, and the diseased area ratio to non-treated section was obtained in the same manner as in Test Example 3. Further, the theoretical value was calculated by a Colby's formula and shown in brackets ( ) in Tables 4-1 to 4-19. Since the diseased area ratio to non-treated section (experimental value) is lower than the theoretical value, the composition of the present invention can be said to have a synergistic effect.

The subject of experiment [4] is Phyicularia oryzae. Type of experiment: cell-based.
Experiment [5] concerns Botrytis cinerea. The experiment can be described thus: Test on antifungal activity against gray mold pathogen, mycelial growth on agar (Test Example 6). The format is cell-based. As to the method:
Mycelial growth of Botrytis cinerea preliminarily obtained by cultivation was punched out by a cork borer having a diameter of 4 mm and transplanted on a potato sucrose agar medium containing mixed chemical agents adjusted to prescribed concentrations. The system was left to stand at 25° C. for 3 days for cultivation, whereupon the diameter of mycelial growth was measured. The incidence to non-treated section was obtained in the same manner as the above Test Example 5, and the results are shown in Table 6-1 to 6-3.
Further, the theoretical value was calculated by a Colby's formula and shown in brackets ( ) in Tables 6-1 to 6-3. Since the incidence to non-treated section is lower than the theoretical value, the composition of the present invention can be said to have a synergistic effect.

The test system of experiment [6] is Erysiphe graminis. As to the kind of experiment: Test on preventive effect against wheat powdery mildew (Test Example 1). Type of experiment: in vivo.
Experiment [7] relates to Botrytis cinerea. The experiment can be described thus: Test on antifungal activity against gray mold pathogen, intersecting filter papers (Test Examples 7 and 8). Type of experiment: cell-based. The note with it: single use, filter paper immersed in 30 ppm solution, 20° C. for 4 days.

Values joined by “and” are separate entries in the source; they are usually repeats but may differ in a detail not shown here. Equal entries are not always repeated. Where two headings read alike, the source gives them in different places.

For the compound `CCCC(C)Oc1ccc(C(=O)C(C)(C)NC(=O)c2ncccc2C(F)(F)F)cc1` (centres unmarked) [Compound No. 11, N-[[4′-(2-pentyloxy)-1,1-dimethyl]phenacyl]-3-trifluoromethyl-2-pyridinecarboxamide], the “diseased area ratio to non-treated section (experimental value)” value was 7.5 and 12.5 and 15.0 and 10.0 in experiment [1] (single use at 2 ppm); 50.0 in experiment [2] (single use at 12.5 ppm); 25.0 in experiment [2] (single use at 50 ppm); 70.0 in experiment [3] (single use at 4 ppm); 55.7 in experiment [3] (single use at 8 ppm). In addition, the “incidence to non-treated section (mycelial growth diameter)” value (from here on “incidence to non-treated section”) in experiment [4] is 63.0 and 73.9; in experiment [5] (single use at 5 ppm) it was 46.0; in experiment [5] (single use at 50 ppm), 32.3.
Take `C/C(=N/Nc1nc(C)cc(C)n1)c1ccccc1C` [ferimzone]: the “incidence to non-treated section” value in experiment [4] (single use at 0.5 ppm) came to 10.9.
As for `Cc1cc(OC(C)C)ccc1C(=O)C(C)(C)NC(=O)c1ncccc1C(F)(F)F` [Compound No. 4, N-[[2′-methyl-4′-(2-propyloxy)-1,1-dimethyl]phenacyl]-3-trifluoromethyl-2-pyridinecarboxamide], the “diseased area ratio to non-treated section” value in experiment [6] (Compound (a) alone 125 ppm) is 5.0 and 3.6; in experiment [6] (Compound (a) alone 250 ppm), 0.6; in experiment [1] (Compound (a) alone 2 ppm) it was 7.5. The “diseased area ratio to non-treated section (experimental value)” value in experiment [2] (single use at 12.5 ppm) is 35.0; in experiment [2] (single use at 50 ppm), 20.0; in experiment [3] (single use at 4 ppm), 70.0 and 79.7; in experiment [3] (single use at 8 ppm) it was 64.6. Besides, the “incidence to non-treated section” value in experiment [4] is 69.6 and 71.7; in experiment [5] (single use at 0.5 ppm), 45.2.
Turning to `Cc1ccsc1C(=O)NC(C)(C)C(=O)c1ccc(Cl)c(Cl)c1` [Compound No. 2, N-[(3′,4′-dichloro-1,1-dimethyl)phenacyl]-3-methyl-2-thiophenecarboxamide], the “diseased area ratio to non-treated section” value in experiment [6] (Compound (a) alone 125 ppm) is 97.5 and 90.0; in experiment [6] (Compound (a) alone 250 ppm), 95.0 and 75.0; in experiment [6] (Compound (a) alone 500 ppm) it was 70.0. In addition, the figures for the “diseased area ratio to non-treated section (experimental value)” value in experiment [2] (single use at 12.5 ppm), in experiment [2] (single use at 50 ppm) and in experiment [3] (single use at 4 ppm) were 50.0, 35.0 and 65.0, respectively. Besides, the “incidence to non-treated section” value in experiment [4] was determined as 82.6. For the same compound, the “controlling effect (contact of filter paper with mycelial growth area of Botrytis cinerea)” value in experiment [7] is reported as “no adequate controlling effect”.
